Source: patent US11529323B2 (priority 2017, dated 2022)

What was measured:
[1] = system: serum cytokines; test: Serum cytokine panel, multiplex analysis, Study 2, tumor-free mice; type: in vivo, mouse; details: GTx-024 15 mg/kg p.o. qd, Day 17 sacrifice, mean ± SD
Protocol: This confirmatory study was performed exactly as Study 1 with expanded animal numbers. Tumor-free control groups were maintained at 6 animals each, whereas 10 animals were included in each of the tumor-bearing groups. […] Grip strength was measured on study days 0 (baseline) and 16. Due to rapid model progression, this study was terminated after only 12 days of treatment.
Serum cytokine panel analyses were performed by a commercial vendor (Eve Technologies, Calgary, Canada) as previously described. Serum interleukin-6 (IL-6) was measured using a commercial ELISA kit (R&D Systems, Minneapolis, Minn., USA) according to the manufacturer's instructions.

[2] = Single dose AR-42 plasma and tissue pharmacokinetics in mouse; type: in vivo; details: for Plasma exposure: tumor-free mice
Protocol: FIG. 1A is a graph showing results of a single dose AR-42 plasma and tissue pharmacokinetic study. Tumor-free […] mice were administered a single dose of 10 mg/kg, 20 mg/kg or 50 mg/kg AR-42 (n=3) and plasma (dashed) and gastrocnemius (solid) tissue analyzed for AR-42 content at different times using LC-MS/MS analyses according to Materials and Methods (Mean±SD). FIG. 1B is a graph showing AR-42 dose-response. Starting six days after C-26 cell injection, animals received vehicle or AR-42 orally at 10 or 20 mg/kg daily or 50 mg/kg every other day for 13 days (n=4-6). Day 18 bodyweights compared to Day 0, corrected for tumor mass according to the Materials and Methods. Bars represent mean±SD. *p<0.05, ****p<0.0001 versus tumor-bearing vehicle-treated controls, Tukey's multiple comparison test. FIG. 1C is a table showing AR-42's in vitro human HDAC inhibition profile determined using recombinant enzymatic assays. […] Longitudinal mean bodyweights per treatment group are presented as a percent change from pre-study body weights. Tumor-free animals (circles), tumor-bearing animals (bars). Inset: terminal tumor volumes (mean+SD, n=5-6 per group).
Pharmacokinetic studies were performed as previously described (Cheng H et al. AAPS J. 2016 18(3):737-45).
Pharmacokinetic studies were performed as previously described (Cheng H, et al. AAPS J. 2016 18(3):737-45) with the following modifications. Seven week-old, male, tumor-free CD2F1 mice (n=3 per dose and time point) were administered single oral doses of 10, 20 and 50 mg/kg AR-42 and then sacrificed 0.25, 4 and 24 hours later. Fifty mg of gastrocnemius muscle tissue was flash frozen in 2 mL Beadblaster™ 24 (MIDSCl; St. Louis, Mo.) tubes and stored at −80° C. Samples were homogenized for 6-cycles using a Beadblaster 24 with analytical standards in 1 mL methanol and then centrifuged at 13,000 rpm (4° C.) for 10 min. Supernatants were transferred to glass tubes, dried under nitrogen, then reconstituted in 200 μL 40% methanol/0.1% formic acid. Plasma preparation and LC-MS/MS analyses were performed as previously described (Sborov D W, et al. Leuk Lymphoma 2017 58(10):2310-8). Mouse plasma and muscle pharmacokinetic parameters were estimated as previously described with the exception of Cavg which was calculated as AUCall/[Dosing Interval(h)].

C[C@](O)(COc1ccc(C#N)cc1)C(=O)Nc1ccc(C#N)c(C(F)(F)F)c1 [GTx-024, (2S)-3-(4-cyanophenoxy)-N-(4-cyano-3-(trifluoromethyl)phenyl)-2-hydroxy-2-methylpropanamide]
Eotaxin, serum [1]: 669.53 ± 100.70 pg/mL | G-CSF, serum [1]: 338.39 ± 71.70 pg/mL | GM-CSF, serum [1]: 13.27 ± 4.62 pg/mL | IFNg, serum [1]: 5.93 ± 2.14 pg/mL | IL12 (p40), serum [1]: 22.48 ± 13.42 pg/mL | IL-1a, serum [1]: 60.41 ± 56.12 pg/mL | IL-1b, serum [1]: 14.65 ± 5.66 pg/mL | IL-2, serum [1]: 15.43 ± 6.56 pg/mL | IL-3, serum [1]: 1.10 ± 0.63 pg/mL | IL-4, serum [1]: 0.48 ± 0.37 pg/mL | IL-5, serum [1]: 5.71 ± 3.26 pg/mL | IL-6, serum [1]: 2.45 ± 1.31 pg/mL | IL-7, serum [1]: 11.51 ± 11.06 pg/mL | IL-9, serum [1]: 8.02 ± 6.78 pg/mL | IL-10, serum [1]: 2.38 ± 1.13 pg/mL | IL-12 (p70), serum [1]: 10.83 ± 6.12 pg/mL | IL-13, serum [1]: 29.87 ± 12.81 pg/mL | IL-15, serum [1]: 131.33 ± 70.97 pg/mL | IL-17, serum [1]: 5.01 ± 1.18 pg/mL | IP-10, serum [1]: 145.68 ± 48.83 pg/mL | KC, serum [1]: 90.02 ± 17.69 pg/mL | LIF, serum [1]: 2.50 ± 2.34 pg/mL | LIX, serum [1]: 1316.67 ± 1662.66 pg/mL | M-CSF, serum [1]: 27.23 ± 10.09 pg/mL | MCP-1, serum [1]: 54.54 ± 7.47 pg/mL | MIG, serum [1]: 89.29 ± 41.83 pg/mL | MIP-1a, serum [1]: 75.46 ± 29.41 pg/mL | MIP-1b, serum [1]: 87.69 ± 10.61 pg/mL | MIP-2, serum [1]: 136.75 ± 47.91 pg/mL | RANTES, serum [1]: 20.84 ± 10.38 pg/mL | TNFa, serum [1]: 12.15 ± 4.24 pg/mL | VEGF, serum [1]: 0.87 ± 0.32 pg/mL

CC(C)[C@H](C(=O)Nc1ccc(C(=O)NO)cc1)c1ccccc1 [AR-42, (S)—N-hydroxy-4-(3-methyl-2-phenylbutanamido)benzamide]
concentration at 4 h ([2]; male, mouse, in vivo, single oral dose 10 mg/kg, remained above for 4 hours, read-out: gastrocnemius muscle concentrations): > 700 nM | mouse plasma exposure at 50 mg/kg relative to well tolerated plasma exposure in humans ([2]; oral 50 mg/kg in mice versus 8.5 μM*h in humans): 8.7 fold | Plasma exposure ([2]; single oral dose 10 mg/kg): 10.9 µM·h | Plasma exposure ([2]; single oral dose 50 mg/kg): 74.3 µM·h
